Reference: PubChem BioAssay AID540269 (Sanford-Burnham Center for Chemical Genomics, 2011)
Activity calls are given as the source filed them. How the calls were made is not given here.

target: glucose-6-phosphate dehydrogenase-6-phosphogluconolactonase (Plasmodium falciparum 3D7); assay: inhibition of P. falciparum G6PD activity – biochemical, kinetic NADPH detection, orthogonal assay, dose response (AID 540269); conditions: purified PfG6PD-6PGL

Compound	IC50
Cc1ccc(-c2c(C(=O)N/N=C/c3ccc(C)o3)nnn2-c2nonc2N)cc1	51.3 µM
CC1=NOC(=O)/C1=C\c1ccc(-c2ccccc2Br)o1	> 80 µM (inactive)
COC1=CC(=O)C=C(OC)C1(O)CC(C)=O	> 80 µM (inactive)
Cc1ccccc1-n1sc2cc(F)ccc2c1=O	10.2 µM
COc1ccc(N2C(=O)/C(=C/c3cccs3)NC2=S)cc1	40.2 µM
Cc1cccc(C2(c3cccc(C)c3)CC2C(=O)Nc2ccc([N+](=O)[O-])cc2O)c1 (stereo unspecified)	> 80 µM (inactive)
COC(=O)C1=C(C(=O)OC)SC2(S1)C(C(=O)OC)=C(C(=O)OC)Sc1c2ssc1=O	> 80 µM (inactive)
Clc1ccc2nc(-c3ccc(Br)s3)cn2c1	> 80 µM (inactive)
COc1cc(NCCCn2cnc3c(OCc4ccccc4)ncnc32)cc(OC)c1OC	> 80 µM (inactive)
COc1cccc(-c2c(C(=O)N/N=C/c3ccc(C)o3)nnn2-c2nonc2N)c1	12.7 µM
COc1ccc(S(=O)(=O)Nc2cc(SCC(=O)O)c(O)c3ccccc23)cc1	44.9 µM
Oc1cc(CNCc2ccccc2)c(O)cc1CNCc1ccccc1	53.7 µM
N#Cc1ccc2sn(-c3ccccc3)c(=O)c2c1	14.8 µM
COc1cc(CNc2ccc3[nH]c(=O)[nH]c3c2)ccc1OCc1ccccc1	> 80 µM (inactive)
CCOC(=O)Cc1csc(-n2sc3ccccc3c2=O)n1	31.3 µM
Cc1c(C(=O)N(Cc2ccccc2Cl)C2CCS(=O)(=O)C2)oc2ccccc12 (stereo unspecified)	> 80 µM (inactive)
O=C(CCC(=O)Nc1ccccc1Cl)N/N=C/c1ccccc1	> 80 µM (inactive)
Cc1ccc(-c2nn(C)c(=O)c3ccccc23)cc1CNC(=O)/C=C/c1ccccc1	68.6 µM
COc1cc(-c2cc(=O)c3c(O)c(OC)c(OC)c(O)c3o2)ccc1O	40.3 µM
O=C(Sc1n[nH]c(=O)[nH]c1=O)c1ccccc1	22.8 µM
COc1cc(NCc2ccccc2)c2ncn(Cc3ccccc3)c2c1	> 80 µM (inactive)
O=C(CSc1nc2cc(Cl)ccc2s1)c1ccco1	> 80 µM (inactive)
COC(=O)CCC(=O)Nc1sc(Cc2ccccc2)c(C)c1C(N)=O	35.1 µM

Compound	IC50
N#Cc1c(C#N)c(SSc2c(C#N)c(C#N)c(N)n2-c2ccccc2)n(-c2ccccc2)c1N	> 80 µM (inactive)
O=C1C(Cl)=C(NCCc2ccccc2)C(=O)c2ccccc21	70.3 µM
O=C(Cn1sc2ccccc2c1=O)Nc1ccccc1	14.3 µM
COc1ccc(CNC(=O)Cc2cn(C)c3ccccc23)c(OC)c1	> 80 µM (inactive)
CCC(C)c1ccccc1OCCn1ccnc1 (stereo unspecified)	> 80 µM (inactive)
O=C1C=CC2=C3c4cc(O)c(O)cc4CC3(O)COC2=C1O (stereo unspecified)	37.8 µM
CC1(OC(=O)C2CCCC2)C(=O)C=C2C=C(c3ccsc3)N(Cc3ccc4c(c3)OCO4)C=C2C1=O (stereo unspecified)	> 80 µM (inactive)
COc1ccc(Cl)cc1NC(=O)c1cccc([N+](=O)[O-])c1O	> 80 µM (inactive)
Cc1ccc(NC(=O)c2cc(N3C(=O)C=CC3=O)ccc2N2CCOCC2)cc1Cl	> 80 µM (inactive)
O=S(=O)(Nc1ccccc1F)c1cccc(NC(=S)NCCN2CCOCC2)c1	50.2 µM
COc1cc(N=c2ssnc2Cl)cc(OC)c1OC	34 µM
COc1ccc(N=C2C(=S)N(c3ccc(OC)cc3)C(=NS(=O)(=O)c3ccccc3)N2c2ccccc2)cc1	> 80 µM (inactive)
CC(C)Sc1nnc(NC(=O)c2ccc3c(c2)OCO3)s1	29.5 µM
O=S(c1ccccc1O)S(=O)c1ccccc1O (stereo unspecified)	36.4 µM
CCN(CC)CCNC(=O)CCCCn1c(=S)[nH]c2c([nH]c3ccc(OC)cc32)c1=O	15.7 µM
Cc1cc(NC(=O)c2oc3ccccc3c2C)ccc1-n1cnnn1	14.9 µM
CN(C)c1ccc(C=c2c3cc(O)ccc3n3c2cc(-c2ccccc2)[n+]3C)cc1	> 80 µM (inactive)
CCOc1ccccc1NC(=O)CCCc1nc2ccccc2c(=O)[nH]1	> 80 µM (inactive)
c1cc(CNc2ccc3c(c2)OCO3)ccn1	> 80 µM (inactive)
Cc1cccc(OCC(=O)NCC(=O)N/N=C/c2ccccc2)c1	> 80 µM (inactive)
[O-]/[N+](=C\c1ccco1)c1ccc(Cl)cc1	76.7 µM
COc1cc(/C=C2\SC(c3ccc(C)cc3)=NC2=O)cc(OC)c1O	> 80 µM (inactive)
CCn1c(N)c(C(=O)NC)sc1=S	26.3 µM

Compound	IC50
c1ccc(-c2nc(N3CCOCC3)s[n+]2-c2ccccc2)cc1	> 80 µM (inactive)
Cc1nn(-c2ccccc2)c(Cl)c1/C=N/Nc1nc2ccccc2n1C	> 80 µM (inactive)
Cn1c2ccccc2c2ccc3c(c21)C(=O)C=CC3=O	1.8 µM
C[C@]12CC[C@@H]3c4cc(O)c(O)cc4CC[C@H]3[C@@H]1CC[C@@H]2O	25 µM
CC1CCc2c(nc3sc4c(c3c2N)CCCC4)C1 (stereo unspecified)	> 80 µM (inactive)
C[C@H](CO)N1C[C@H](C)[C@@H](CN(C)C(=O)Nc2ccc(C(F)(F)F)cc2)Oc2c(cccc2N(C)C)C1=O	> 80 µM (inactive)
CCCCCCCCn1sccc1=O	66.4 µM
Cc1cc(SCC(=O)N/N=C/c2ccco2)nc2ccccc12	> 80 µM (inactive)
CN(C)c1nc(=NCc2cccs2)ss1	> 80 µM (inactive)
CCOc1ccc(NC(=O)Cn2sc3nc(C)cc(C)c3c2=O)cc1	37.5 µM
Cc1ccc(-n2c(N)c(C(=O)N3CCN(C)CC3)sc2=S)cc1	70.6 µM
Cc1cccc(C(=O)Nc2nnc(S(=O)(=O)N3CCCCCC3)s2)c1	16.9 µM
O=C(Cc1ccccc1)NCC(=O)OCC(=O)c1ccc([N+](=O)[O-])cc1	57.9 µM
Cn1c(-c2sccc2OCc2cccc(C(F)(F)F)c2)n[nH]c1=S	7.3 µM
CN1CCN(C(=O)c2sc(=S)n(-c3ccccc3)c2N)CC1	50.3 µM
CCc1cc(-c2n[nH]c(C)c2-c2nc3ccccc3n2C)c(O)cc1O	9.3 µM
CCN(CC)c1ccc(C(=C2C=CC(=[N+](CC)CC)C=C2)c2ccc(N(CC)CC)cc2)cc1	16.1 µM
O=C(Nc1nnc(S(=O)(=O)N2CCOCC2)s1)c1cccc(Br)c1	60.2 µM
C=CCOc1ccc(CNc2ccc3[nH]c(=O)[nH]c3c2)cc1OC	> 80 µM (inactive)
O=C1C=CC(=O)N1c1ccc(N2CCCCC2)cc1	37 µM
Cc1ccc(S(=O)(=O)/N=C2/C=C(C3C(=O)CC(C)(C)CC3=O)C(=O)c3ccccc32)cc1	> 80 µM (inactive)
[O-]/[N+](=C/c1cccnc1)c1ccc(Br)cc1	77.1 µM
COC(=O)[C@H](C)NC(=O)c1cc2c(cn1)[nH]c1ccccc12	51 µM

Compound	IC50
COc1ccc(CN(C)S(=O)(=O)c2nnc(NC(=O)c3ccc(C)cc3)s2)cc1OC	29.9 µM
COc1ccc(C(=O)/C=C2\Sc3ccccc3N2C)cc1	43.4 µM
CCC(=O)OCOc1ccc(/C=C2/CCC(CN(C)C)C2=O)cc1 (stereo unspecified)	36.4 µM
c1nc(SSc2ncnc3nc[nH]c23)c2[nH]cnc2n1	27 µM
CC1=CC(C)(C)Nc2ccc(OC(=O)CN3C(=O)c4cccc5cccc(c45)C3=O)cc21	76.9 µM
Cc1ccsc1/C=N\NC(=O)CC(=O)NCc1ccccc1	> 80 µM (inactive)
NNC(=O)CN1C(c2ccccc2Br)=Nc2ccc(Br)cc2C1c1ccccc1 (stereo unspecified)	57.2 µM
Cn1c(=O)c2c([nH]c(=S)n2CCCc2ccccc2)n(C)c1=O	72.8 µM
O=C(Cn1sc2ccccc2c1=O)Nc1ccc(F)cc1	13.8 µM
CCCn1cc(S(=O)(=O)CC(=O)Nc2ccc(OC)cc2OC)c2ccccc21	> 80 µM (inactive)
S=c1ncc2[nH]c(=S)[nH]c2[nH]1	64.4 µM
Cc1ccc2nc(SCC(=O)N/N=C/c3ccco3)cc(C)c2c1	> 80 µM (inactive)
OCCN1CCN(C(=S)c2ccc(Cl)c(Cl)c2)CC1	> 80 µM (inactive)
O=C(Nc1sc2c(c1C(=O)O)CCC2)c1ccc(F)cc1	41.3 µM
COc1cccc2nc3cc(C)c(C)cc3nc12	> 80 µM (inactive)
Cc1cccc(C(=O)Nc2sc3c(c2C(=O)O)CCCC3)c1	32.9 µM
CN(C)c1cccc2c1c(NC(=O)c1ccc(Cl)cc1)nn2C	> 80 µM (inactive)
Clc1ccc(N=c2ssnc2Cl)nc1	> 80 µM (inactive)
COc1c(O)ccc2c1CN1CCc3cc4c(cc3C1C2)OCO4 (stereo unspecified)	> 80 µM (inactive)
Cn1sc2ccccc2c1=O	39.5 µM
Cc1ccc(C(=O)NCC(=O)NCC(=O)OCC(=O)c2ccc([N+](=O)[O-])cc2)cc1	> 80 µM (inactive)
COc1ccccc1N1C(=O)C=C(Sc2nc(C)cc(C)n2)C1=O	> 80 µM (inactive)
OCc1ccccc1SSc1ccccc1CO	53.1 µM

Compound	IC50
Cn1c(=O)[nH]c(=O)c2c1[nH]c(=S)n2CCCc1ccccc1	43.7 µM
CC1(C)Nc2ccc(O)cc2-c2c1ssc2=S	> 80 µM (inactive)
Cc1[nH]c2ccccc2c1/C=N/Nc1nncn1N	> 80 µM (inactive)
COc1cccc(/C=N/NC(=O)CSc2cccc3cccnc23)c1	21.7 µM
CCOc1ccccc1C=NNC(=O)CCCCC(=O)NN=Cc1ccccc1OCC	> 80 µM (inactive)
CCn1c2ccccc2c2nc3cc(S(=O)(=O)N4CCOCC4)ccc3nc21	> 80 µM (inactive)
COc1cc(N(C)C)ccc1C=c1c2ccccc2n2c1cc(-c1ccccc1)[n+]2C	> 80 µM (inactive)
COCc1cc(=O)n2[nH]c(C(C)(C)C)cc2n1	43.2 µM
O=c1[nH]c2ccccc2n2c(-c3ccccc3)nnc12	13.2 µM
c1ccc(OCc2nnc3n2N=C(c2ccccc2)CS3)cc1	> 80 µM (inactive)
C(=N\Nc1nc2ccccc2[nH]1)/c1ccccn1	> 80 µM (inactive)
CC1(OC(=O)C2CCCC2)C(=O)C=C2C=C(c3ccsc3)N(CC3CC3)C=C2C1=O (stereo unspecified)	> 80 µM (inactive)
Cc1cc(N=NC(=O)c2ccccc2O)c2ccccc2c1O	> 80 µM (inactive)
CN1/C(=C\C(=O)c2cccs2)Sc2ccccc21	26.1 µM
Cc1ccc(Cl)cc1NC1=C/C(=N\S(=O)(=O)c2cccs2)c2ccccc2C1=O	> 80 µM (inactive)
Nn1c(SCC(=O)Nc2cccnc2Cl)nnc1-c1ccccc1	> 80 µM (inactive)
CC1=C(C)CS(=O)N(S(=O)(=O)c2ccc(Cl)cc2)C1 (stereo unspecified)	> 80 µM (inactive)
N#Cc1ccc2c(=O)n(-c3ccccc3)sc2c1	39.6 µM
CNCc1ccccc1Sc1cc(O)ccc1O	54.5 µM
